{
  "source": "patent US20250319053A1",
  "about": "“INHIBITORS OF THE PEPTIDYL-PROLYL CIS/TRANS ISOMERASE (PIN1), COMBINATIONS AND USES THEREOF” (DANA-FARBER CANCER INSTITUTE, INC., priority 2021, published 2025)",
  "key": {"[1]": {"tested_on": "advanced PDAC patients", "settings": "cited from earlier work"}, "[2]": {"tested_on": "PDAC tumors in GDA mice", "test": "KPC mouse-derived orthotopic allograft (GDA) mouse model", "type": "in vivo", "method": "2) the KPC Genetically engineered mouse-derived orthotopic allografts (GDA) mouse model (Hingorani et al., Cancer Cell 7, 469-483 (2005); Li et al., Comput Struct Biotechnol J 17, 498-506 (2019)). Mouse PDAC cells were established from KPC mouse pancreatic tumor tissues, followed by orthotopically injecting 1×10^6 mouse PDAC cells in 50 μL Matrigel (356231, Coaning) into the pancreas of female 8 week-old syngeneic immunocompetent C57BL/6 mice (Jackson Laboratories). 3) PDAC Patient-derived Tumor orthotopic xenografted (PDTX) mouse model (Gilles et al., Clin Cancer Res 24, 1734-1747 (2018); Rubio-Viqueira et al., Clin Cancer Res 12, 4652-4661 (2006)). PDAC PDX tumors were obtained from Dr. Muthuswamy and Dr. Hidalgo and divided into 4×2 mm pieces, followed by xenografting orthotopically into the pancreas of female 8-week-old immunodeficient NOD.Cg-Prkdc^scid Il12rg^tm1Wjl/SzJ (NOD scid gamma; NSG) mice (Jackson Laboratories). 4) PDAC Patient-derived Organoid and CAFs orthotopic xenograft (PDOX) mouse model (Dantes et al., JCI Insight 5, 137809 (2020); (Koikawa et al., Cancer letters 425, 65-77 (2018)). 5×10^4 patient derived PDAC organoids and 5×10^4 patient derived CAFs in 50 μL of Matrigel were injected orthotopically into the pancreas of female 8 week-old immunodeficient NSG mice (Jackson Laboratories).\nBriefly, all mice were randomly selected to receive treatments groups. Tumor sizes were measured by weekly palpation with electronic caliper or ultrasound, and when tumors were reached >0.5 cm, the treatment was started. Briefly, animals were placed under general anesthesia with 2%-3% isoflurane once a week. Under general anesthesia, the abdominal wall became very flaccid, and the muscle tone of the mouse was very low. The mouse was scuffed with the left hand to allow for palpation and measurement with the right hand. This allowed to detect the firm pancreatic mass by palpation, and to determine its size by electronic caliper measurements. […] In the transgenic KPC mice, where spontaneous tumor development was expected, weekly palpation was started from age 8 weeks. When the tumor by palpation after age 12 weeks could not be detected, the mice were monitored by ultrasound. Once the maximum length >0.5 cm tumor was detected, the mice were randomized to treatment, and then followed tumor growth by electronic caliper measurement. To validate the external caliper measurements, the tumor size was measured prior to euthanization of the mice and then measured the actual tumor size upon necropsy to ascertain concordance. […] To evaluate the effects of CD8+ T cell or NK1.1′ cell depletion in GDA mice, mice were treated with anti-CD8 (200 μg, i.p., twice a week, BE0117, BioXcell) (Pantelidou et al., Cancer Discov. 9, 722-37 (2019)) or anti-NK1.1 (25 μg, i.p., twice a week, BE0036, BioXcell) (Waggoner et al., Nature 481, 394-398 (2011)), or vehicle (IgG isotype control), and/or Sulfopin (40 mg/kg, i.p., every day) (Pin1i−2) or vehicle (Sulfopin diluted solution; 5% NMP, 5% Solutol, 20% DMSO), and/or anti-PD1 (200 μg, i.p., every 3-4 days, BE0146, BioXcell) or vehicle (IgG isotype control). To test Sulfopin and/or PTX and/or anti-CTLA4 combination treatment in GDA mice, mice were treated with Sulfopin (40 mg/kg, i.p., every day) (Pin1i−2) or vehicle (Sulfopin diluted solution; 5% NMP, 5% Solutol, 20% DMSO), and/or PTX (10 mg/kg i.p., weekly) or vehicle (PTX diluted solution; 10% DMSO, 40% PEG300, 5% Tween 80, 45% Saline), and/or anti-CTLA-4 (250 μg, i.p., every 3-4 days, BE0032, BioXcell) or vehicle (IgG isotype control)."}, "[3]": {"test": "Body weight of Pin1i-2 treated non-tumor-bearing B6 mice", "type": "in vivo, mouse", "settings": "Day 0 = 100", "method": "Table 1 is a table of blood test results together with body weight of Pin1i−2 treated non-tumor-bearing B6 mice. See also FIG. 1A-FIG. 1G, FIG. 8A-FIG. 8O, and FIG. 9A-9L. WT B6 mice (non-tumor-bearing mice) were treated with vehicle or Pin1i−2 (20, 40, or 60 mg/kg, i.p., daily) for 5 weeks, followed by examining mice body weight or the RBC, Hb, Plate, and kidney and liver function using blood tests at 3 weeks and 5 weeks (n=5)."}, "[4]": {"tested_on": "primary human CAFs (CAF1 and CAF2)", "test": "Cell proliferation assay (CellTiter-Glo) in CAFs", "type": "cell-based", "settings": "72 hrs", "method": "Cells were seeded at a density of 5000 cells (PDAC1 and PDAC2), or 3000 cells (CAF1 and CAF2) per well in 96-well flat-bottomed plates and incubated for 24 h in culture medium. […] Control cells received dimethyl sulfoxide (DMSO) at a concentration equal to that of drug-treated cells for 72 hours. The cell viability was determined by CellTiter-Glo® 2.0 Assay (Promega) following the manufacturer's instructions."}, "[5]": {"tested_on": "human PDAC organoids", "test": "Organoid apoptosis assay, co-culture with activated human PBMCs", "type": "cell-based", "settings": "Pin1i−2 at 5 μM 3 days, αPD1 at 200 μg/mL for 40 hrs", "method": "For assaying the effects of Pin1 inhibition on anti-PD1 or PDL1 sensitivity, organoids and PBMCs were co-culture as described previously (Dijkstra et al., 2018; Jiao et al., 2017). […] Human PBMCs (Precision for Medicine) were stimulated by PDAC organoid culture media, and 8.0×10^4 PBMCs were incubated with 2 pl CD3/28 beads (11161D, GIBCO) and 30 U recombinant IL-2 (200-02, Peprotech) per well in 96-well plates for 24 hours before starting co-culture. […] At the start of co-culture, a green-fluorescent caspase 3/7 probe reagent (R37111, Invitrogen) and Hoechst (135102, Invitrogen) were added to visualize cells undergoing apoptosis. Apoptotic organoids were monitored by live-cell time lapse imaging was started 2 hours after the start of co-culture using BZ-X800 fluorescence microscope (KEYENCE) and quantified using BZ-X800 analyzer (ver. 1.1.1.8, KEYENCE). […] Synergy scores were calculated by Synergyfinder ver 2 (synergyfinder.fimm.fi/) (Ianevski et al., Nucleic Acids Res. 48 IW1), […]-[…] (2020))."}, "[6]": {"settings": "GDA mice, FIG. 9A, GEM 20 mg/kg, n=6, vehicle 34 days"}},
  "data": [
    {"smiles": "Nc1ccn([C@@H]2O[C@H](CO)[C@@H](O)C2(F)F)c(=O)n1", "note": "[GEM, gemcitabine, reference compound]", "values": [
      {"measurement": "overall survival (OS)", "setting": "[1]", "value": 6.6, "unit": "month"},
      {"measurement": "response rate", "setting": "[1]", "value": 23.8, "unit": "%"},
      {"measurement": "Median survival", "setting": "[2]; [6]", "value": 42, "unit": "days"}
    ]},
    {"smiles": "CC(C)(C)CN(C(=O)CCl)C1CCS(=O)(=O)C1", "note": "(centres unmarked) [Pin1i−2, sulfopin]", "values": [
      {"measurement": "Body weight", "setting": "[3]; 20 mg/kg i.p. daily, 3 weeks", "value": 105.5371, "unit": "%"},
      {"measurement": "Body weight", "setting": "[3]; 20 mg/kg i.p. daily, 5 weeks", "value": 107.5, "unit": "%"},
      {"measurement": "Body weight", "setting": "[3]; 40 mg/kg i.p. daily, 3 weeks", "value": 107.9, "unit": "%"},
      {"measurement": "Body weight", "setting": "[3]; 40 mg/kg i.p. daily, 5 weeks", "value": 106.7, "unit": "%"},
      {"measurement": "Body weight", "setting": "[3]; 60 mg/kg i.p. daily, 3 weeks", "value": 104.8, "unit": "%"},
      {"measurement": "Body weight", "setting": "[3]; 60 mg/kg i.p. daily, 5 weeks", "value": 107.3, "unit": "%"},
      {"measurement": "CAF proliferation (cell growth)", "setting": "[4]", "value": "suppression of CAF proliferation"},
      {"measurement": "desmoplastic (fibrotic) and immunosuppressive TME", "setting": "[2]; GDA mice", "value": "potently reduce the fibrotic TME"},
      {"measurement": "CAF activation (IF for αSMA or PDGFRα)", "setting": "[2]; GDA mice, 4 weeks", "value": "significantly reduced"},
      {"measurement": "collagen deposition (Sirius Red staining)", "setting": "[2]; GDA mice, 4 weeks", "value": "significantly reduced"},
      {"measurement": "Median survival", "setting": "[2]; [6]", "value": 56, "unit": "days"},
      {"measurement": "Median survival", "setting": "[2]; GDA mice, FIG. 9I, treated up to 150 days, GEM 10 mg/kg weekly, αPD1, n=8, vehicle 36.5 days", "value": 54, "unit": "days"},
      {"measurement": "tumor growth", "setting": "[2]; overt tumor-bearing GDA mice", "value": "significantly reduced tumor growth"},
      {"measurement": "apoptosis of WT organoids", "setting": "[5]", "value": "promoted the apoptosis of WT organoids"}
    ]}
  ]
}
